Experimental data reported in US20070292405A1, “Uses of Erss Modulators” (priority 2004, published 2007).

Legend:
3β-HSD = test: Production of A/anedione from DHEA in human prostate chips (TLC); format: biochemical; conditions: 1 μM trilostane
[1] = target: T1, mouse ERα receptor (mERα) (Mus musculus, UniProt P19785); test: Luciferase reporter assay: transactivation of (ERE)-TK-Luc by ERα in COS cells; format: cell-based; conditions: for activation of ERα (in words): compound alone, 7HD at similar concentration as for ERβ, ICI 182, 780 at 1 μM
T1 construct: expressed in transfected cells; host or cells: COS (COS-1)
T1 sequence (P19785 1-599): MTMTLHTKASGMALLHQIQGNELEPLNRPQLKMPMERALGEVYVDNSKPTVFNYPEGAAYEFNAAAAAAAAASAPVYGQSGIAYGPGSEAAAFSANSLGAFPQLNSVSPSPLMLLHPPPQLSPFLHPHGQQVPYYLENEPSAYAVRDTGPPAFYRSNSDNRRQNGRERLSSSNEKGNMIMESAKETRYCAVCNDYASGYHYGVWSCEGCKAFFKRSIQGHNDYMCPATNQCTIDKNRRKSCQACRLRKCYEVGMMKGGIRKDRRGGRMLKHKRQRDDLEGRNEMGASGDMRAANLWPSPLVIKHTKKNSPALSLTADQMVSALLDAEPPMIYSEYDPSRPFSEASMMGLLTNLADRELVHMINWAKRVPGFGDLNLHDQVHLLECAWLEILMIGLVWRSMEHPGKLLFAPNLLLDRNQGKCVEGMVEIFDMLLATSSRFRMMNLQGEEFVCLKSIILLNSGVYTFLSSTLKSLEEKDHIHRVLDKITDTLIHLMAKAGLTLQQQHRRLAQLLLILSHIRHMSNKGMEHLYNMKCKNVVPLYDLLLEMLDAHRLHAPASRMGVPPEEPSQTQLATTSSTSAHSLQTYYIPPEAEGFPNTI
Method: (§1) Values shown are means (±S.E.M.) of 3 to 5 independent experiments each carried out in triplicate.
(§2) COS-1 cells and HepG2 cells were maintained in high glucose Dulbecco's minimum essential medium (DMEM) containing penicillin (25 units/ml), streptomycin (25 μg/ml), and 10% fetal calf serum (v/v). Cells were seeded at a density of 5×10^5 cells/dish and left to adhere overnight. On the day of the transfection, the medium was replaced with DMEM lacking phenol red supplemented with 10% DCC-FCS (v/v). Transfections were carried out using the calcium phosphate procedure according to standard protocols with 10 μg DNA ([…] expression plasmid, 1-5 μg reporter plasmid, 1 μg pCH110 encoding β-galactosidase used as internal control (Pharmacia) and 3-7 μg pGEM3). Expession plasmid were: the mouse ERα receptor (mERα gift from Prof. M. Parker, London U.K. (31)), human ERβ. receptor (hERβ; from Dr R. White, London U.K. (32)) and human androgen receptor (pSVARo; Prof. A. Brinkman, Rotterdam Holand). […] Reporter plasmids were: (ERE)-TK-Luc (gift From Dr V. Giguere, Montreal, Canada) for estrogen responsivity and PSA (PSA61-luc, Prof. J. Trapman, Rotterdam Holland) for androgen responsivity. […] Following cell lysis, luciferase and β-galactosidase activities were measured as described (33). Data are expressed as relative luciferase/β-galactosidase and are means±S.E.M. from at least three independent experiments.
(§3) Both COS-1 cells and HepG2 cells were used and both these cell lines require exogenous AR, ERα and ERβ to activate androgen (PSA) or estrogen (ERE) responsive reporter genes.

[2] = tested on: whole human prostate chips; test: DHEA metabolism in whole human prostate chips, metabolites analysed by HPLC; format: in vitro ADME
human ERβ receptor = target: T2, human ERβ receptor (Homo sapiens, UniProt Q92731); test: Ligand-competition study: [3H]-E2 binding to in vitro synthesised ERβ protein; conditions: 7HD 0-250 μM, 16 h, reticulocyte lysate
T2 construct: made in house; host or cells: cell-free: TnT-coupled reticulocyte lysate system (Promega)
Method: Reticulocyte lysate containing ERβ protein was equilibrated for 16 h with […] [3H]-E2 and the indicated fold excess of 7HD. Data represent [3H]-E2 bound in presence of 7HD (0-250 μM). [3H]-E2 binding in the absence of 7HD was set at 100%. *, p<0.001 and γ, p<0.01; 7HD vs control without 7HD.
Human ERβ clone was synthesised in vitro using the TnT-coupled reticulocyte lysate system following manufacturer instructions (Promega, Southampton, U.K.). Translation reaction mixtures were diluted five times with TEDGMo buffer (40 mM Tris/Hcl, pH 7.4/1 mM EDTA/10% (vol/vol) glycerol/10 mMNa2MoO4/10 mM DTT) and 0.1 ml aliquots were incubated for 16 h at 4° C. with 0.5 nM [2,4,6,7-^3H]4-E2 (specific radioactivity 89 Ci/mmol) in presence of either 0, 1, 5, 10, 20, 50 and 250 μM of 7HD. Bound and unbound steroids were separated by filtration.
The ability of 7HD to inhibit [^3H]-E2 binding was also measured by a competition binding assay using human ERβ receptor synthesised in vitro from our human ERβ clone (hERβ) using a TnT-coupled reticulocyte lysate system (FIG. 7). In our competition study, 7HD interacted with ERβ receptor and inhibited [^3H]-E2 binding dose-dependently.

[3] = target: T3, human ERβ receptor (hERβ) (Homo sapiens, UniProt Q92731); test: Luciferase reporter assay: transactivation of (ERE)-TK-Luc by ERβ in HepG2 cells; format: cell-based
T3 construct: expressed in transfected cells; host or cells: HepG2
Method: as §1, §2, §3

[4] = target: T4, human androgen receptor (hAR) (Homo sapiens, UniProt P10275); test: Luciferase reporter assay: transactivation of PSA-Luc reporter in COS-1 cells containing hAR; format: cell-based
T4 construct: expressed in transfected cells; host or cells: COS-1
T4 sequence (P10275 1-920): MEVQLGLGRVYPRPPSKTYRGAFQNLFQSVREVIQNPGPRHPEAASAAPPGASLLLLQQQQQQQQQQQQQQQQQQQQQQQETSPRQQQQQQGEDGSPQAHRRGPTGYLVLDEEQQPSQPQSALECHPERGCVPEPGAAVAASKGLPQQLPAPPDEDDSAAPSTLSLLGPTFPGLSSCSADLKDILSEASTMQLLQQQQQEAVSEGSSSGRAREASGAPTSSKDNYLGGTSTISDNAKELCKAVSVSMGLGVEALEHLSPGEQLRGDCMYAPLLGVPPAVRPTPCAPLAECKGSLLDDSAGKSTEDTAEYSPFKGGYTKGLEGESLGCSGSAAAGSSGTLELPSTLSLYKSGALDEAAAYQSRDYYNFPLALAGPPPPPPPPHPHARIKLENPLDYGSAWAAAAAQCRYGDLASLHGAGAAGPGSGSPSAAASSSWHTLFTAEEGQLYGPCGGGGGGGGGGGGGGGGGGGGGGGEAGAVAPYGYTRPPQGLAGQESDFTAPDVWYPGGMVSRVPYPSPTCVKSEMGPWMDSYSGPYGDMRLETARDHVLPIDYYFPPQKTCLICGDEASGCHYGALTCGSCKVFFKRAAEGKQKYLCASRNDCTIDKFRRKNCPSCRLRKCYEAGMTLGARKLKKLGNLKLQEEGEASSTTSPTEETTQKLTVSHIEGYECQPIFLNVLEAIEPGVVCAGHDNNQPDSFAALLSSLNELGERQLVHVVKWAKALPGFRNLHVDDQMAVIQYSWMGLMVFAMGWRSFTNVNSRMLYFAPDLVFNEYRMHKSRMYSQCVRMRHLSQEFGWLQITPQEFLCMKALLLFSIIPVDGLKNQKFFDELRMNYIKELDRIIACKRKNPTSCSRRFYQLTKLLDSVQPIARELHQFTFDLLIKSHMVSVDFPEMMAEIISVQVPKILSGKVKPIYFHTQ
Method: as §1
COS-1 cells and HepG2 cells were maintained in high glucose Dulbecco's minimum essential medium (DMEM) containing penicillin (25 units/ml), streptomycin (25 μg/ml), and 10% fetal calf serum (v/v). Cells were seeded at a density of 5×10^5 cells/dish and left to adhere overnight. On the day of the transfection, the medium was replaced with DMEM lacking phenol red supplemented with 10% DCC-FCS (v/v). Transfections were carried out using the calcium phosphate procedure according to standard protocols with 10 μg DNA ([…] expression plasmid, 1-5 μg reporter plasmid, 1 μg pCH110 encoding β-galactosidase used as internal control (Pharmacia) and 3-7 μg pGEM3). Expession plasmid were: the mouse ERα receptor (mERα gift from Prof. M. Parker, London U.K. (31)), human ERβ. receptor (hERβ; from Dr R. White, London U.K. (32)) and human androgen receptor (pSVARo; Prof. A. Brinkman, Rotterdam Holand). […] Following cell lysis, luciferase and β-galactosidase activities were measured as described (33). Data are expressed as relative luciferase/β-galactosidase and are means±S.E.M. from at least three independent experiments. […]

T3 sequence (Q92731 whole entry): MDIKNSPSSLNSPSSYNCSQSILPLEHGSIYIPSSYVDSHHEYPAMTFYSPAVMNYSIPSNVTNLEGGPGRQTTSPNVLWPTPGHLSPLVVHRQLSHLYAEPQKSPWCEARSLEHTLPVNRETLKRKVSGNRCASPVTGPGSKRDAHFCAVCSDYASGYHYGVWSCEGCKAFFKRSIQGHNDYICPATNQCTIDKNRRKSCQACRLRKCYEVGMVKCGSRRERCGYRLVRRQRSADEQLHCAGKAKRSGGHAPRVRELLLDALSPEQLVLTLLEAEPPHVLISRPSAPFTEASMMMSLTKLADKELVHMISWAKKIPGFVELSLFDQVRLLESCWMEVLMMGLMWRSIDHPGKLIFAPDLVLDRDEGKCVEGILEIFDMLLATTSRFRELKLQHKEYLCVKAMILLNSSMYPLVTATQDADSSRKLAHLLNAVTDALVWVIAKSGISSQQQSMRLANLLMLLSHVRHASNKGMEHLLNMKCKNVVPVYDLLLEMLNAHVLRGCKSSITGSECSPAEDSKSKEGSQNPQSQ
T2 sequence (Q92731 whole entry): as above

## C[C@]12CC[C@H]3[C@@H](CC[C@@]45O[C@@H]4C(O)=C(C#N)C[C@]35C)[C@@H]1CC[C@@H]2O [Trilostane]
3β-HSD
  effect on production of A/anedione: successfully blocked

## C[C@]12CC[C@@H]3c4ccc(O)cc4C[C@@H](CCCCCCCCC[S+]([O-])CCCC(F)(F)C(F)(F)F)[C@H]3[C@@H]1CC[C@@H]2O (some centres unmarked) [ICI 182, 780]
[1]; 1 μM
  effect on E2 and 7HD-induced transcription of luciferase, ERα co-transfected cells: completely abolished
[1]
  activation of ERα (in words): could not stimulate

## C[C@]12CC[C@H](O)CC1=CC[C@@H]1[C@@H]2CC[C@]2(C)C(=O)CC[C@@H]12 [DHEA, dehydroepiandosterone]
[2]
  share of DHEA metabolites that represent A/enetriol: 9%
  share of DHEA metabolites that were products of 3β-HSD and 17β-HSD: 37%

## C[C@]12CC[C@H](O)CC1=C[C@@H](O)[C@@H]1[C@@H]2CC[C@]2(C)C(=O)CC[C@@H]12 [7HD, 7α-hydroxyDHEA]
Human ERβ receptor
  inhibition of [3H]-E2 binding to ERβ: dose-dependently
[3]; (ERE)-TK-Luc, HepG2 cells, read-out: EC50 of activation of ERβ-mediated transcription
  EC50: 6.2 µM
[3]; E2 0.1 nM, p<0.01
  transcriptional effect combined with sub-minimal dose of E2: additive
[3]; compound alone, ICI 182, 780 at 1 μM
  activation of ERβ-mediated transcription (in words): significantly activated
[1]
  activation of ERα (in words): minimal, non-specific activation
[4]
  activation of androgen receptor dependent transcription of PSA-luciferase reporter (in words): unable to activate
